Series [1] in a line: Anti-osteoclastogensis activity in C57BL/6 mouse BMMC cells assessed as inhibition of RANKL/M-CSF-induced TRAP activity at 1 uM measured after 3 days by colorimetric assay (reference value: 0%). Type of series: functional. The conditions noted are these: C57BL/6, BMMC, 72 h, time 3 day.
The nature of series [2]: Cytotoxicity against C57BL/6 mouse BMMC cells assessed as cell viability at 10 uM measured after 48 hrs by CCK-8 assay (reference value: 100%). Type of series: toxicity, cell-based. As to conditions: read-out: Activity. A general note: Formazan colour is commonly taken as a measure of viable cells.
Series [3] is described as follows: Inhibition of His-tagged human recombinant BRPF1B bromodomain using biotinylated H4 (1 to 21)K5/8/12/16Ac peptide as substrate incubated for 0.5 hrs by AlphaScreen assay.
The species named for series [4] is Homo sapiens. Description: Inhibition of His-tagged human recombinant BRPF1B bromodomain using biotinylated H4 (1 to 21)K5/8/12/16Ac peptide as substrate at 2 uM incubated for 0.5 hrs by AlphaScreen assay relative to control.
For series [5], the species on record is Homo sapiens. Nature of the series: Inhibition of His-tagged human recombinant BRPF1B bromodomain using biotinylated H4 (1 to 21)K5/8/12/16Ac peptide as substrate at 20 uM incubated for 0.5 hrs by AlphaScreen assay relative to control. (In general: In Alpha technology, singlet oxygen from a donor bead excites a nearby acceptor bead.)
Series [6] relates to BMMC. Description: Anti-osteoclastogenesis activity in C57BL/6 mouse BMMC cells assessed as reduction of RANKL/M-CSF-induced NFATc1 mRNA expression at 1 uM measured after 3 days by qRT-PCR analysis. Type of series: functional, cell-based. As to conditions: time 3.0 day. (Real-time PCR tracks product formation cycle by cycle.)
For series [7], the system named is BMMC. Description: Anti-osteoclastogenesis activity in C57BL/6 mouse BMMC cells assessed as reduction of RANKL/M-CSF-induced CTSK mRNA expression at 1 uM measured after 3 days by qRT-PCR analysis. Type of series: functional, cell-based. The conditions noted are these: time 3.0 day.
The test system of series [8] is BMMC. Description: Anti-osteoclastogenesis activity in C57BL/6 mouse BMMC cells assessed as reduction of RANKL/M-CSF-induced osteoclast activation and differentiation measured after 5 days by TRAP staining based light microscopic analysis. As to conditions: for Activity: time 5.0 day. It counts as functional, cell-based.
Series [9] has as its system BMMC. Description: Anti-osteoclastogenesis activity in C57BL/6 mouse BMMC cells assessed as reduction of RANKL/M-CSF-induced TRAP mRNA expression at 1 uM measured after 3 days by qRT-PCR analysis. It counts as functional, cell-based. The conditions noted are these: time 3.0 day.
For series [10], the system named is BMMC. Nature of the series: Anti-osteoclastogenesis activity in C57BL/6 mouse BMMC cells assessed as reduction of RANKL/M-CSF-induced osteoclast activation and differentiation by measuring F-actin ring formation with fewer and smaller nuclei measured after 5 days by F-actin staining based microscopic analysis. The conditions noted are these: time 5.0 day. Type of series: functional, cell-based.

The test system of series [11] is BMMC. Nature of the series: Anti-osteoclastogenesis activity in C57BL/6 mouse BMMC cells assessed as reduction of RANKL/M-CSF-induced bone resorption of osteoclasts by measuring decrease in bone resorption pit formation treated for 7 days after seeding cells onto bone slices by toluidine blue staining based confocal laser microscopic analysis. Type of series: functional, cell-based. The conditions noted are these: dose 0.625-10 µM, time 7.0 day.

Series [12] concerns BMMC. Nature of the series: Anti-osteoclastogenesis activity in C57BL/6 mouse BMMC cells assessed as reduction of RANKL/M-CSF-induced c-fos mRNA expression measured after 3 days by qRT-PCR analysis. Type of series: functional, cell-based. The conditions noted are these: dose 2.5-10 µM, time 3.0 day.
Series [13] deals with BMMC. Description: Anti-osteoclastogenesis activity in C57BL/6 mouse BMMC cells assessed as reduction of RANKL/M-CSF-induced bone resorption of osteoclasts by measuring decrease in pit areas treated for 7 days after seeding cells onto bone slices by toluidine blue staining based confocal laser microscopic analysis. It counts as functional, cell-based. As to conditions: dose 0.625-10 µM, time 7.0 day.

The test system of series [14] is BMMC. Nature of the series: Anti-osteoclastogenesis activity in C57BL/6 mouse BMMC cells assessed as reduction of RANKL/M-CSF-induced osteoclast activation and differentiation by measuring decrease in F-actin ring formation measured after 5 days by F-actin staining based microscopic analysis. The conditions noted are these: time 5.0 day. Type of series: functional, cell-based.

Series [15] has as its system BMMC. Description: Anti-osteoclastogenesis activity in C57BL/6 mouse BMMC cells assessed as reduction of RANKL/M-CSF-induced c-fos expression at 1 to 10 uM measured after 3 days by Western blot analysis. Type of series: functional, cell-based. The conditions noted are these: dose 1-10 µM, time 3.0 day.
The species entered for series [16] is Homo sapiens. Nature of the series: Binding affinity to BRPF1B (unknown origin) assessed as change in melting temperature at 10 uM by Differential scanning fluorimetry.

pIC50: −log10 of the molar value. Activity calls are given as the source filed them. The rule behind the calls is not given here.

Take `CC(=O)c1c(C)[nH]c2c(NC3CCNCC3)cc(-c3cccnc3)cc12`: the inhibition at 1 µM in series [1] amounted to 57.1%. In [2], the viability at 48 h, 10 µM was 94.9%. For the same compound, in [3], the pIC50 is 6.35.
On to `CC(=O)c1c(C)[nH]c2c(NC3CNC3)cc(-c3cccnc3)cc12`, for which the negative logarithm of the IC50 (pIC50) in series [3] was 5.46.
As to `CC(=O)c1c(C)[nH]c2c(N(C)C)cc(-c3ccccn3)cc12`, the inhibition at 1 µM in series [1] is 100%. Besides, the viability at 48 h, 10 µM in series [2] was 28.9%. For the same compound, in series [3], the pIC50 is 6.27.
On to `COc1ccccc1C(=O)Nc1cc2c(cc1N1CCCC1)n(C)c(=O)n2C`, for which the inhibition in the series filed under Homo sapiens [4] was 101%; in the series listed under Homo sapiens [5], 100%.
The corresponding values for `COC(=O)c1cc(NS(=O)(=O)c2ccccc2)c2[nH]c(C)c(C(C)=O)c2c1` are 18.3% and 100%.
On to `CCOC(=O)Nc1cc(-c2cccnc2)cc2c(C(C)=O)c(C)[nH]c12`, for which the result with BMMC [6], in the series with BMMC [7], in the series on BMMC [9], in the series with BMMC [10], with BMMC [14] and in the series on BMMC [15] was Active. Moreover, the pIC50 with BMMC [8] (C57BL/6, BMMC, 120 h) is 6.72; in [3] it was 6.99. Moreover, the Activity result with BMMC [8], with BMMC [11], in the series on BMMC [12] and in the series on BMMC [13] was “Dose-Dependent Effect” throughout. Further, the inhibition at 1 µM in series [1] worked out at 73.8%. The viability at 48 h, 10 µM in [2] was determined as 113%.
For the compound `CCOC(=O)Nc1cc(-c2ccccn2)cc2c(C(C)=O)c(C)[nH]c12`, the inhibition at 1 µM in series [1] turned out to be 38.8%. Besides, in series [2], the viability at 48 h, 10 µM was found to be 110%. Further, in series [3], the pIC50 is 6.96.
The like results for `CC(=O)c1c(C)[nH]c2c(N(C)C)cc(-c3cccnc3)cc12` were, in that order, 26.2%, 104% and 6.76.
The like results for `CCOC(=O)Nc1cc(-c2ccncc2)cc2c(C(C)=O)c(C)[nH]c12` were, in that order, 66.5%, 107% and 6.96.
The like results for `CC(=O)c1c(C)[nH]c2c(N(C)C)cc(-c3nccs3)cc12` were, in that order, 44.1%, 92.6% and 7.05.
On to `CCOC(=O)Nc1cc(C(=O)Nc2nccs2)cc2c(C(C)=O)c(C)[nH]c12`, for which the inhibition at 1 µM in series [1] amounted to 0%. Further, the viability at 48 h, 10 µM in [2] turned out to be 104%. Besides, the pIC50 in series [3] was 6.51.
As to `COC(=O)c1cc(NS(=O)(=O)c2ccccc2OC)c2[nH]c(C)c(C(C)=O)c2c1`, the inhibition in the series filed under Homo sapiens [4] came out at 60%; in the series filed under Homo sapiens [5] it was 100%.
On to `COC(=O)c1cc(NC(=O)Nc2ccccc2OC)c2[nH]c(C)c(C(C)=O)c2c1`, for which the inhibition in the series filed under Homo sapiens [5] is 91.9%.
For `CC(=O)c1c(C)[nH]c2c(N(C)C)cc(-c3ccncc3)cc12`, the inhibition at 1 µM in series [1] came out at 67.1%. The viability at 48 h, 10 µM in [2] was 110%. For the same compound, the negative logarithm of the IC50 (pIC50) in series [3] was 7.15.
As for `CCOC(=O)Nc1cc(C(=O)Nc2ccccc2)cc2c(C(C)=O)c(C)[nH]c12`, in series [3], the pIC50 was 5.77.
`CCNC(=O)Nc1cc(C(=O)OC)cc2c(C(C)=O)c(C)[nH]c12`: the results for the inhibition in the series listed under Homo sapiens [4] and in the series listed under Homo sapiens [5] were 42.2% and 100%, respectively.
In the case of `CCOC(=O)CNc1cc(C(=O)OC)cc2c(C(C)=O)c(C)[nH]c12`, the ΔTm in the series filed under Homo sapiens [16] came to 5.18 °C.
Turning to `COC(=O)c1cc(NC(=O)c2ccccc2OC)c2[nH]c(C)c(C(C)=O)c2c1`, in the series listed under Homo sapiens [5], the inhibition came out at 28.3%.
On to `CCOC(=O)Nc1cc(C(=O)OC)cc2c(C(C)=O)c(C)[nH]c12`, for which the values for the inhibition in the series filed under Homo sapiens [4] and in the series filed under Homo sapiens [5] were 93.1% and 100%, respectively. Besides, the ΔTm in the series filed under Homo sapiens [16] amounted to 5.39 °C. In [3], the pIC50 was 6.25.
As to `COC(=O)c1cc(NC(=O)Nc2ccccc2)c2[nH]c(C)c(C(C)=O)c2c1`, the inhibition in the series filed under Homo sapiens [4] stood at 17.6%; in the series listed under Homo sapiens [5], 100%.
In the case of `CC(=O)c1c(C)[nH]c2c(N3CCCC3)cc(-c3cccnc3)cc12`, in series [1], the inhibition at 1 µM was determined as 40%. For the same compound, the viability at 48 h, 10 µM in series [2] worked out at 101%. In addition, in series [3], the pIC50 was 6.63.
The corresponding values for `CCOC(=O)Nc1cc(C(=O)c2ccccc2)cc2c(C(C)=O)c(C)[nH]c12` are 66.8%, 119% and 6.13.
For `COC(=O)c1cc(NC(=O)c2ccccc2)c2[nH]c(C)c(C(C)=O)c2c1`, the inhibition was found to be 11.5% in the series filed under Homo sapiens [4] and 100% in the series listed under Homo sapiens [5].
Turning to `COC(=O)c1cc(NC(=O)Nc2cccc(C(F)(F)F)c2)c2[nH]c(C)c(C(C)=O)c2c1`, in the series filed under Homo sapiens [5], the inhibition was 82.3%.
Turning to `CC(=O)c1c(C)[nH]c2c(N)cc(-c3cccnc3)cc12`, in [1], the inhibition at 1 µM is 0%. Moreover, in [2], the viability at 48 h, 10 µM was 109%. Besides, the pIC50 in [3] is 5.95.
For the compound `CCNC(=O)Nc1cc(-c2cccnc2)cc2c(C(C)=O)c(C)[nH]c12`, the negative logarithm of the IC50 (pIC50) in series [3] was 5.84.
For `CCOC(=O)Nc1cc(C(=O)NC)cc2c(C(C)=O)c(C)[nH]c12`, the inhibition at 1 µM in series [1] worked out at 36.8%. In [2], the viability at 48 h, 10 µM came to 92.6%. Besides, in series [3], the negative logarithm of the IC50 (pIC50) is 6.04.
On to `CCOC(=O)Nc1cc(-c2ccccc2)cc2c(C(C)=O)c(C)[nH]c12`, for which, in [1], the inhibition at 1 µM worked out at 0%. Further, the viability at 48 h, 10 µM in [2] is 110%. Further, the pIC50 in [3] is 6.69.
For the compound `CCOC(=O)Nc1cc(C(=O)OC)cc2c(C(C)=O)c[nH]c12`, in the series listed under Homo sapiens [5], the inhibition turned out to be 13.1%.
Take `CCCC(=O)Nc1cc(C(=O)OC)cc2c(C(C)=O)c(C)[nH]c12`: the inhibition in the series filed under Homo sapiens [4] was 38.5%; in the series listed under Homo sapiens [5], 100%.
Take `COc1ccccc1S(=O)(=O)Nc1cc(-c2cccnc2)cc2c(C(C)=O)c(C)[nH]c12`: the Activity entry in the series on BMMC [8] was “Dose-Dependent Effect”. Further, in series [1], the inhibition at 1 µM amounted to 74.2%. In series [2], the viability at 48 h, 10 µM came out at 92.7%. Moreover, the pIC50 in series [3] was 5.96.
As to `CCOC(=O)Nc1cc(C(=O)NC2CCCC2)cc2c(C(C)=O)c(C)[nH]c12`, the pIC50 in series [3] was 5.74.
In the case of `CCOC(=O)Nc1cc(-c2nccs2)cc2c(C(C)=O)c(C)[nH]c12`, in series [1], the inhibition at 1 µM is 41.3%. The viability at 48 h, 10 µM in series [2] is 111%. The pIC50 in series [3] was 6.53.
As for `COC(=O)c1cc(NC(=O)c2ccc(Cl)cc2)c2[nH]c(C)c(C(C)=O)c2c1`, the ΔTm in the series listed under Homo sapiens [16] stood at 1.92 °C.
Regarding `CCOC(=O)Nc1cc(-c2ccccn2)cc2cc(C)[nH]c12`, the pIC50 in [3] is under 5.00.
Consider `CCOC(=O)Nc1cc(C(=O)OC)cc2c(C(C)=O)c(C)n(C)c12`, for which the inhibition in the series listed under Homo sapiens [4] is 17.6%; in the series listed under Homo sapiens [5], 99.8%.

For orientation: inhibition means the relative decrease from the control value, in per cent. The term pIC50 denotes the negative decadic logarithm of the IC50, by convention in mol/L. What is called ΔTm is the shift of the melting midpoint relative to a reference.

The record behind these values is ChEMBL document CHEMBL5329201, “Development of 3-acetylindole derivatives that selectively target BRPF1 as new inhibitors of receptor activator of NF-κB ligand (RANKL)-Induced osteoclastogenesis” (Bioorg Med Chem, 2023).
